Patent US20130116185A1, “PHOSPHATIDYLINOSITOL 3-KINASES ACTIVITY REGULATOR INCLUDING THE FIFTH ZINC FINGER DOMAIN OF FOG2” (SNU R&DB FOUNDATION, priority 2010, published 2013)
Entries after “also recorded” stand apart in the source; their conditions may differ.

Legend:
Akt = Akt phosphorylation by Western blot in Hep3B cells treated with peptide and IGF-1; assay type: cell-based; conditions: 4 μM peptide 2 days, serum-free 24 hr, IGF-1 30 min, FIG. 2D
Procedure: To test whether the Akt activity induced by IGF-1 treatment is inhibited by the synthesized peptides, Hep3B cells were incubated with IGF-1 and ZF-5-wt-24 […] and the expressions of Akt and pAkt were analyzed.
Hep3B cells were incubated with 4 μM ZF-5-wt-24 for 2 days and then further incubated in a serum-free media for 24 hr. Afterwards, the cells were incubated with IGF-1 for 30 min and subject to the Western blot analysis. Mock (DMSO) was used as a control.

PI3K [1] = molecular target: T1, PI3K (Homo sapiens, UniProt P27986); assay: PI3K activity in MDA MB 231 cells incubated with zinc finger domain peptides; assay type: cell-based; parameters: The cell lysates were immunoprecipitated with p85α (sc-1637, Santa Cruz) and Protein G-Sepharose beads; endogenous in cells; conditions: synthesized peptides, FIG. 5
Procedure: (§1) For measurement of PI3K activity, 10 μl of sonicated PIP2 (1 μg/μl, Calbiochem), 10 μl of 100 mM MgCl2 and 1 μl of [-^32P]ATP (500 μCi/ml) were added to the kinase buffer (10 mM Tris-HCl (pH 7.4), 150 mM NaCl, 1 mM Na3VO4, 10 mM ZnCl2) and incubated at 37° C. for 30 min. After incubation, 20 μl of 6 N HCl was added to stop the reaction and PIP2 was extracted by treatment with 200 μl of methanol:chloroform (1:1) solution. The amount of radioactively labeled PIP2 in the extract was measured using a scintillator counter.
For peptide treatment, cells were trypsinized to detach them from a culture dish and their aliquot (2×10^5 cells) was incubated with 4 μM peptides in 100 mm dishes. The control was incubated with Mock (DMSO).

HCT116 cells = assay: Colony formation assay in 0.3% agar; assay type: cell-based; conditions: synthesized peptide, one week, colonies over 1 mm counted, FIG. 3C
Procedure: HCT116 cells (1×10^3) were trypsinized and seeded in triplicate in a six-well plate. The serum-free medium containing the synthesized peptide in <Example 3> and 0.3% agar was incubated with the cells. One week after treatment, the generated colony was visualized with 0.5 mg/ml NBT (Nitro blue tetrazolium chloride) and the colonies over 1 mm in diameter were counted.

MDA MB 231 cells [2] = assay: Cell migration, modified Boyden chamber method; assay type: cell-based; conditions: 4 μM peptide, 2 days of treatment, 18 hr migration, FIG. 3B
Procedure: MDA MB 231 cells were transfected with pCK-flag (control), FOG2-wt (wild type) and FOG2 mutants having modified zinc finger domain (FOG2-ZF-5-m and FOG2-ZF-6-m). The cell migration was then analyzed using the modified Boyden chamber method (Albini A et al., Cancer Res 1987 47:3239-45). Following the transfection for 24 hr, MDA MB 231 cells (1×10^5) were suspended in a serum-free medium and seeded in triplicate in the upper part of BD chamber ([…] pore size). The lower part was filled with the serum-free medium. Following the incubation at 37° C. for 18 hr, non-migrating cells positioned at the upper surface of filters were cleaned with a cotton swab. The migrating cells passing through the lower surface of filters were fixed with 70% ethanol and treated with the Giemsa staining solution for 50 min. Then, the cells were rinsed with water and observed under a microscope. The cell migration rate was determined by counting the number of cells present in randomly-selected six sections and the migration range was expressed as the average number of cells per a microscopic field.
MDA MB 231 cells were incubated with 4 μM Mock (control, DMSO), 4 μM ZF-5-wt-24, 4 μM ZF-5-m-24, 4 μM ZF-5-wt-20 or 4 μM ZF-3-wt-21. After treatment, the cell migration was analyzed using the modified Boyden chamber method (Albini A et al., Cancer Res 1987 47:3239-45). After 2 days of treatment, MDA MB 231 cells (1×10^5) were suspended in the serum free medium and seeded in triplicate in the upper part of BD chamber ([…] pore size). The lower part was filled with the serum free medium. Following the incubation at 37° C. for 18 hr, non-migrating cells positioned at the upper surface of filters were cleaned with the cotton swab. The migrating cells passing through the lower side surface of filters were fixed with 70% ethanol and stained using the Giemsa stain method. The cell migration rate was determined by counting the number of cells present in randomly-selected six sections and the migration range was expressed as the average number of cells per a microscopic field.

MDA MB 231 cells [3] = assay: Apoptosis by FACS analysis (propidium iodide) in MDA MB 231 cells; assay type: cell-based; conditions: synthesized peptides, FIG. 7C
Procedure: PI3K inactivation has been reported to cause cancer cell apoptosis, and FOG2 is known to inhibit the PI3K activity. To test whether PI3K inactivation by overexpressing FOG2 induces apoptosis, MDA MB 231 cells overexpressed FOG2 were analyzed with FACS.
MDA MB 231 cells were incubated with Full-FOG2[1-1151], FOG2[1-412], FOG2[413-789] or FOG2[802-1151]. The cells (5×10^4) were seeded in a 12-well plate and transfected with 1 μg of Full-FOG2[1-1151], FOG2[1-412], FOG2[413-789] or FOG2[802-1151] using Lipofectamine 2000. The cells were incubated at 37° C. for 2 days and subject to FACS analysis.
The cells were incubated with FOG2 fragments and fixed with 70% ethanol for 16 hr. The fixed cells were stained using RNase (5 mg/ml) and propidium iodide ([…]). The amount of DNA in stained cells was analyzed with Cell Quest program of FACS caliber (Becton Dickinson).

MCF 7 = assay: Apoptosis by FACS analysis in MCF7 cells; assay type: cell-based; conditions: synthesized peptides, FIG. 7D
Text: FIG. 7D is a graph showing the apoptotic effect by synthesized zinc finger domain peptides of FOG2 in MCF7 cells according to FACS analysis;

PI3K [4] = molecular target: T1, PI3K; assay: In vitro competition analysis (PI3K immunoprecipitated from 293T cell lysates with p85α antibody plus peptides); assay type: biochemical; parameters: The cell lysates were immunoprecipitated with p85α (sc-1637, Santa Cruz) and Protein G-Sepharose beads; endogenous in cells; conditions: peptides 1 μM, 5 μM and 10 μM, dose-dependent, compared with ZF-3-wt-21, FIG. 2B
Procedure: The in vitro competition analysis was performed by PI3K immunoprecipitation in 293T cells. The activated PI3K was extracted from the 293T cell lysates by immunoprecipitating with p85α antibody simultaneously with addition of the synthesized peptides (1 μM, 5 μM and 10 μM). The PI3K activation was induced as described above.

PI3K [5] = molecular target: T1, PI3K; assay: IGF-1-induced PI3K activation in Hep3B cells incubated with peptides; assay type: cell-based; parameters: The cell lysates were immunoprecipitated with p85α (sc-1637, Santa Cruz) and Protein G-Sepharose beads; endogenous in cells; host or cells: Hep3B; conditions: 4 μM peptides, 48 hr, FIG. 2C
Procedure: as §1
In addition, Hep3B liver cancer cells were incubated with 4 μM peptides for 48 hr and the PI3K activity was analyzed.

MDA MB 231 cells [6] = assay: Cell proliferation MTT assay; assay type: cell-based
Procedure: Because the PI3K activation is critical in cell growth, the cell proliferation was analyzed to investigate the inhibitory effect of the FOG2 zinc finger domain using the MTT assay.
MDA MB 231 cells were seeded in a 96-well plate, and transfected with 100 ng DNA of pCKflag, FOG2-wt, FOG2-ZF-5-m or FOG2-ZF-6-m using Lipofectamine 2000. On 3 days post-transfection, the MTT assay was performed.
MDA MB 231 cells (2×10^3 cells) were seeded in a 96-well plate and treated with 4 μM each peptide for 3 days. After the treatment, 50 μl of MTT solution (2 mg/ml) was added to each well, incubated at 37° C. for 1 hr. Then, 150 μl of DMSO was added to each well and the absorbance value of each well was measured at 590 nm using a microplate reader.

T1 sequence (P27986 whole entry, the tested form may be a part): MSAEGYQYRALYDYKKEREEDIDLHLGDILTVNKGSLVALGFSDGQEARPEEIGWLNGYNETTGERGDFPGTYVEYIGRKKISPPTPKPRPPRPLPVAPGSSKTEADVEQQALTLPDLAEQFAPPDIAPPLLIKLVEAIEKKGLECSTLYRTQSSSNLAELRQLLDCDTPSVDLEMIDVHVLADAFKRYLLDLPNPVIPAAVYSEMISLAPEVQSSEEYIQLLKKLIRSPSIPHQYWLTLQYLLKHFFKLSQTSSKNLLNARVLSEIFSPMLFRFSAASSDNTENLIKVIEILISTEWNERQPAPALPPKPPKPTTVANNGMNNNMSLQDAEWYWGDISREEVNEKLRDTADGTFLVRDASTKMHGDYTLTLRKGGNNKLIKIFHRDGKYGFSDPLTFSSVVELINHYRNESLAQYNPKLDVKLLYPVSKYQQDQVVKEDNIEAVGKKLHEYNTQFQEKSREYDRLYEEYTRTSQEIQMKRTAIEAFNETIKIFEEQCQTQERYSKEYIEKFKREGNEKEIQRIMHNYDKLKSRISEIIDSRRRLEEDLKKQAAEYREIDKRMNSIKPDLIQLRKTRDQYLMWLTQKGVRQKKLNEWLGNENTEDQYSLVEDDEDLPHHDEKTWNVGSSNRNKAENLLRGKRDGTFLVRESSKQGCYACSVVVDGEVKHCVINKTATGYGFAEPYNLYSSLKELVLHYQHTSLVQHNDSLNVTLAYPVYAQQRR

PI3K activity (PI3K [1]): decrease PI3K activity
reduction of PI3K activity (PI3K [4]): about 40%
IGF-1-induced PI3K activation (PI3K [5]): inhibited
Substance: ZF-5-wt-24: The peptide comprising a portion of the fifth zinc finger domain of FOG2 (24 amino acids); residues 547-570 (GATCFECNITFNNLDNYLVHKKHY)
Akt phosphorylation induced by IGF-1 stimulation (Akt): reduced
number of colonies / colony formation (HCT116 cells): reduces the colony formation; also recorded: reduced
reduction of cell migration (MDA MB 231 cells [2]): reduce the cell migration
apoptosis (MDA MB 231 cells [3]): promoted apoptosis
apoptosis (MCF 7): promoted apoptosis
reduction of cell proliferation (MDA MB 231 cells [6]; 4 μM peptide for 3 days): about 40%
inhibitory effect on cell proliferation (MDA MB 231 cells [6]; synthesized peptide, increasing concentration, FIG. 6B): reduces the cancer cell proliferation; also recorded: became more prominent as ZF-5-wt-24 concentration increased
